Entries after “also recorded” stand apart in the source; their conditions may differ.
Experiments:
Type in all cases: cell-based, human
HO-1 and NQO-1 = assay: Western blot of HO-1 and NQO-1 in HNDFs; settings: ANM 10 μM or NAC 100 μM, 24 h; for HO-1 protein expression: NG and HG groups
Description: In FIG. 5D, to determine the protein expression levels of HO-1, NQO-1 and Nrf2, HNDFs are incubated with ANM (10 μM) or NAC (100 μM) for 24 h. Total cell lysates are prepared and subjected to western blot analysis to monitor the expression levels of HO-1, NQO-1 and Nrf2.
(§1) Cells are lysed by either RIPA lysis buffer or nuclear and cytoplasmic extraction reagents (Thermo Fisher Scientific). Protein concentrations are determined by Bio-Rad protein assay reagent (Bio-Rad Laboratories, Hercules, Calif.). Equal amounts of protein samples (60 μg) are separated by 7-12% SDS-PAGE and the separated proteins are transferred onto polyvinylidene […] (PVDC) membrane overnight. The transferred protein membranes are blocked with 5% non-fat dried milk for 30 min, followed by incubation with specific primary antibodies overnight, and either horseradish peroxidase-conjugated goat anti-rabbit or anti-mouse antibodies for 2 h. The blots are detected using VL Chemi-Smart 3000 (Viogene Biotek, Sunnyvale, Calif.) with the enhanced chemiluminescence (ECL) western blotting reagent (Millipore, Billerica, Mass.).

Nrf2 = assay: ARE luciferase reporter assay (Nrf2 transcriptional activity) in HNDFs; settings: 6 h; for relative ARE luciferase activity, co-treated with HG: ANM 10 μM or NAC 100 μM + HG 30 mM, HG alone 2.5-fold; for relative ARE luciferase activity, compound alone: ANM 10 μM or NAC 100 μM, control 1-fold, HG 2.5-fold
Description: Therefore, to determine whether ANM augments Nrf2 transcriptional activity, ARE-harboring luciferase reporter assay is used. In FIG. 5E, to determine the Nrf2 transcriptional activity, HNDFs are transiently transfected with ARE promoter construct using lipofectamine and incubated with ANM (10 μM) or NAC (100 μM) in the presence or absence of HG (30 mM) for 6 h. Cell lysates are mixed with luciferase reagents and quantified using an illuminometer. Relative ARE promoter activity is calculated by dividing the relative luciferace unit (RLU) of treated cells by RLU of untreated cells (NG).
Activation of P13K/AKT and mitogen-activated protein kinases (MAPKs), including ERK1/2, JNK/SAPK and p38 MAPK, facilitates Nrf2 transcriptional activation in a variety of human cell lines. […] To elucidate the upstream signaling events involved in ANM-induced Nrf2 transcriptional activity, cells are pre-incubated with pharmacological inhibitors of P13K/AKT (LY294002), ERK1/2 (PD98059), SAPK/JNK (SP600125) and p38MAPK (SB203580) for 2 h and treated with ANM for 6 h in the presence of HG. In FIG. 5G, HNDFs are pre-incubated with AKT, ERK1/2, JNK/SAPK and p38 MAPK inhibitors, including LY294002 (LY, 30 μM), PD98059 (PD, 30 μM), SP600125 (SP, 30 μM) and SB203580 (SB, 30 μM), respectively, for 2 h and then incubated with ANM (10 μM) in the presence of HG (30 mM) for 6 h. Cytoplasmic and nuclear fractions are prepared and subjected to western blot analysis. GAPDH and histone H3 are served as internal controls for the cytoplasmic and nuclear fraction, respectively.
ARE promoter activity is measured using a dual-luciferase reporter assay system (Promega, Madison, Wis.). […] Cells are then transfected with ARE plasmid (Qiagen, Hilden, Germany) using Lipofectamine 2000 (Invitrogen) and incubated for 36 h. […] The cell lysate is prepared and incubated with luciferase agents and the relative luminescence intensity is quantified using a spectrophotometer (Hidex Oy, Turku, Finland).

[1] = system: p38 MAPK, JNK/SAPK, AKT and ERK1/2; assay: Western blot of MAPK and AKT activation in HNDFs; settings: ANM 10 μM or NAC 100 μM + HG 30 mM
Description: Next, the possible upstream regulators of p53 activation are examined. Previous studies have shown that p38 MAPK mediated p53 activation in response to intracellular ROS generation. In FIG. 4F, this effect is further extended to its upstream regulator p38 MAPK.
as §1

Keap-1 = Keap-1 protein level and ubiquitination (western blot, immunoprecipitation) in HNDFs; settings: for ubiquitination of total protein: HNDFs treated with ANM or NAC
Description: Under normal physiological condition, Nrf2 is sequestered in the cytoplasm, where it associated with Keap-1, an actin-binding protein. Upon chemical treatment or oxidative stress conditions, the steady-state levels of Keap-1 is rapidly degraded through the ubiquitin-dependent proteasome pathway, which eventually causes Nrf2 accumulation and transcriptional activity. […] In FIG. 5H, the Keap-1 protein expression level is determined by western blotting.
In FIG. 5I, effect of ANM on ubiquitination of Keap-1 is examined. Equivalent amount of proteins are immune-precipitated with Keap-1 antibody and visualized by western blotting with ubiquitin antibody. […] Results are expressed as mean±S.E.M of three independent experiments. Statistical significance is set at ^ϕP<0.05 as compared to NG vs. HG or ANM alone or NAC alone and *P<0.05 as compared to HG vs. samples. […] Therefore, it is further examined whether AKT and ERK1/2 have any influence on Keap-1 ubiquitination. Cells are co-incubated with AKT, p38MAPK, JNK and ERK1/2 inhibitors in the presence of […]; and the Keap-1 ubiquitination is examined.
HNDFs are seeded at a density of 1×10^6 cells/dish in 10 cm dish and treated with ANM or pharmacological inhibitors of AKT, JNK/SAPK, p38 MAPK and ERK1/2 in the presence or absence of HG. After treatment, cells are lysed with RIPA buffer containing protease inhibitor cocktail. The lysates are homogenized and centrifuged at 16,000×g for 15 min at 4° C. The supernatant is collected and the protein concentration is determined by Bio-Rad protein assay reagent. Total protein extract containing 500 μg of proteins are precleared with protein-A agarose beads for 1 h and incubated with 3 μg of anti-Keap-1 antibody for overnight at 4° C. with gently shake. After overnight incubation, centrifuged at 2000×g for 5 min at 4° C., the supernatant is discarded and the reaming pellet is washed with RIPA buffer. Immunoprecipitated complexes are mixed with SDS sample buffer and denatured at 94° C. for 5 min. Equal amount of protein samples are subjected to western blotting. The ubiquitinated Keap-1 protein levels are determined by ubiquitin antibody.

## C=C(CCC(C)C1CCC2C3=C(C(=O)C(O)C21C)C1(C)CCC(O)C(C)C1CC3)C(C)C(=O)O (stereo not shown) [ANM, antcin M]
HO-1 and NQO-1
  NQO-1 protein expression: unaffected
  HO-1 protein expression: significantly increase
Nrf2
  relative ARE luciferase activity, co-treated with HG: 8.5 fold
  relative ARE luciferase activity, compound alone: 5.8 fold
[1]
  HG-induced JNK/SAPK activation: significantly prevents
  HG-induced activation of p38 MAPK: significantly prevents
  HG-mediated decrease in AKT and ERK1/2 activity (phosphorylation): significantly rescues; also recorded: significantly blocked
Keap-1; ANM + HG
  ubiquitination of Keap-1, co-incubated with HG: further increase
Keap-1; ANM alone or in HG-induced condition
  Keap-1 protein level: significantly decreased
Keap-1; ANM alone, immunoprecipitation with anti-Keap-1
  ubiquitination of Keap-1: remarkable increase
Keap-1
  ubiquitination of total protein: significant increase

## CC(=O)N[C@@H](CS)C(=O)O [NAC, N-acetylcysteine, reference compound]
HO-1 and NQO-1
  NQO-1 protein expression: unaffected
  HO-1 protein expression: significantly increase
Nrf2
  relative ARE luciferase activity, co-treated with HG: 8.2 fold
  relative ARE luciferase activity, compound alone: 6.3 fold
[1]
  HG-induced JNK/SAPK activation: significantly prevents
  HG-induced activation of p38 MAPK: significantly prevents
  HG-mediated decrease in AKT and ERK1/2 activity (phosphorylation): significantly rescues; also recorded: significantly blocked
Keap-1
  ubiquitination of total protein: significant increase

Source: US20180318199A1, “Pharmaceutical Composition Having Anti-Aging Properties against High-Glucose” (TAIWAN LEADER BIOTECH CORP., priority 2017, published 2018)
